The first assay has as its target T1, human plasma kallikrein (Homo sapiens (Human), UniProt P03952).
Assay: not given
The note with it: human plasma kallikrein 25 pM, substrate 0.5 uM, 1 hour pre-incubation at room temperature, read at t=60 min.
T1 sequence (P03952 whole entry, looked up): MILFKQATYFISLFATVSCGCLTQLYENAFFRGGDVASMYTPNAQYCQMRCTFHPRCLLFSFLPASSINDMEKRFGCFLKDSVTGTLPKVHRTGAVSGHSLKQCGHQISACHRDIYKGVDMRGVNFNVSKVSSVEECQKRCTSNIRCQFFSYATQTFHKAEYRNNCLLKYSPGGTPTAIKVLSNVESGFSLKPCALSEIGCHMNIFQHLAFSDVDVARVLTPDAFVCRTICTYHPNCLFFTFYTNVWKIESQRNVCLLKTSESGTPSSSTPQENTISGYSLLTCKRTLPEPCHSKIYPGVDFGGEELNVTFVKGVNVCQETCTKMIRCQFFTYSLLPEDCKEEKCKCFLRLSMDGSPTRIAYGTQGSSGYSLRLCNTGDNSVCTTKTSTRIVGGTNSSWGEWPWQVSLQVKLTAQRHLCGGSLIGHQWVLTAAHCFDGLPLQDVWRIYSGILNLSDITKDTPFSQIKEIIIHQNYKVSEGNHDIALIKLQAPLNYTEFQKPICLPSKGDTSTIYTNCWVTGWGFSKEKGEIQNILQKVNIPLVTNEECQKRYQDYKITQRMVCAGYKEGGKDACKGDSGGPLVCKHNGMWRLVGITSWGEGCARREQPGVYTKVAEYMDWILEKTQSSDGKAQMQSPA
T1 sequence (P03952 whole entry partner, looked up): as the sequence (P03952 whole entry, looked up) above
Molecule `Cc1cc(N)nc(C)c1CNC(=O)c1cnn(Cc2ccc3c(c2)N(C)C(=O)CO3)c1` [Example 151, N-((6-Amino-2,4-dimethylpyridin-3-yl)methyl)-1-((4-methyl-3-oxo-3,4-dihydro-2H-benzo[b][1,4]oxazin-6-yl)methyl)-1H-pyrazole-4-carboxamide] yielded an IC50 of 13 nM.

Consider `Cc1cc(N)nc(C)c1CNC(=O)c1cnn(Cc2ccc3c(c2)N(C)CCC3)c1` [Example 152, N-((6-Amino-2,4-dimethylpyridin-3-yl)methyl)-1-((1-methyl-1,2,3,4-tetrahydroquinolin-7-yl)methyl)-1H-pyrazole-4-carboxamide], for which the IC50 amounted to 4 nM.

`Cc1ccc2cc(Cn3cc(C(=O)NCc4c(C)cc(N)nc4C)cn3)ccc2n1` [Example 154, N-((6-amino-2,4-dimethylpyridin-3-yl)methyl)-1-((2-methylquinolin-6-yl)methyl)-1H-pyrazole-4-carboxamide] came in with an IC50 of 2 nM.

`Cc1cc(N)nc(C)c1CNC(=O)c1cnn(Cc2cnc3ccccc3c2)c1` [Example 155, N-((6-amino-2,4-dimethylpyridin-3-yl)methyl)-1-(quinolin-3-ylmethyl)-1H-pyrazole-4-carboxamide] showed an IC50 of 3 nM.

`Cc1ccc2cc(Cn3cc(C(=O)NCc4ccc(N)nc4C)cn3)ccc2n1` [Example 159, N-((6-amino-2-methylpyridin-3-yl)methyl)-1-((2-methylquinolin-6-yl)methyl)-1H-pyrazole-4-carboxamide] registered an IC50 of 7 nM.

`Cc1nc(N)ccc1CNC(=O)c1cnn(Cc2cc(C(F)(F)F)c3cc(F)ccc3n2)c1` [Example 160, N-((6-amino-2-methylpyridin-3-yl)methyl)-1-((6-fluoro-4-(trifluoromethyl)quinolin-2-yl)methyl)-1H-pyrazole-4-carboxamide]: the IC50 is 20 nM.

In turn, `Cc1cc(C)c2cc(Cn3cc(C(=O)NCc4ccc(N)nc4C)cn3)c(C)nc2c1` [Example 161, N-((6-amino-2-methylpyridin-3-yl)methyl)-1-((2,5,7-trimethylquinolin-3-yl)methyl)-1H-pyrazole-4-carboxamide] registered an IC50 of 4 nM.

`Cc1cc(N)nc(C)c1CNC(=O)c1cnn(Cc2cc(C(F)(F)F)c3cc(F)ccc3n2)c1` [Example 162, N-((6-amino-2,4-dimethylpyridin-3-yl)methyl)-1-((6-fluoro-4-(trifluoromethyl)quinolin-2-yl)methyl)-1H-pyrazole-4-carboxamide]: the IC50 was 5 nM.

`Cc1cc(N)nc(C)c1CNC(=O)c1cn(Cc2ccc3c(c2)c(C)c(C)n3C)nn1` [Example 166, N-((6-amino-2,4-dimethylpyridin-3-yl)methyl)-1-((1,2,3-trimethyl-1H-indol-5-yl)methyl)-1H-1,2,3-triazole-4-carboxamide] showed an IC50 of 0.2 nM.

Take `Cc1nc(N)cc(Cl)c1CNC(=O)c1cnn(Cc2ccc(Cn3ccccc3=O)cc2)c1` [Example 167, N-((6-Amino-4-chloro-2-methylpyridin-3-yl)methyl)-1-(4-((2-oxopyridin-1(2H)-yl)methyl)benzyl)-1H-pyrazole-4-carboxamide]: half-maximal inhibition (IC50) required 0.2 nM.

`Cc1cc(N)nc(C)c1CNC(=O)c1cnn(Cc2ccc3c(c2)cc(C)n3C)c1` [Example 168, N-((6-Amino-2,4-dimethylpyridin-3-yl)methyl)-1-((1,2-dimethyl-1H-indol-5-yl)methyl)-1H-pyrazole-4-carboxamide]: the IC50 was 0.1 nM.

Turning to `Cc1cn2cc(Cn3cc(C(=O)NCc4c(C)cc(N)nc4C)cn3)ccc2n1` [Example 169, N-((6-amino-2,4-dimethylpyridin-3-yl)methyl)-1-((2-methylimidazo[1,2-a]pyridin-6-yl)methyl)-1H-pyrazole-4-carboxamide], the midpoint of inhibition, the IC50, lay at 3 nM.

`Cc1ccc2cc(Cc3nc(C(=O)NCc4c(C)cc(N)nc4C)co3)ccc2n1` [Example 170, N-((6-amino-2,4-dimethylpyridin-3-yl)methyl)-2-((2-methylquinolin-6-yl)methyl)oxazole-4-carboxamide]: the midpoint of inhibition, the IC50, lay at 9.7 nM.

`Cc1cc(N)nc(C)c1CNC(=O)c1cnn(Cc2cc3ccsc3c(N)n2)c1` [Example 171, N-((6-Amino-2,4-dimethylpyridin-3-yl)methyl)-1-((7-aminothieno[2,3-c]pyridin-5-yl)methyl)-1H-pyrazole-4-carboxamide] had an IC50 of 26 nM.

In turn, `Cc1nc(N)cc(Cl)c1CNC(=O)c1cnn(Cc2ccc3ccccc3c2)c1` [Example 172, N-((6-amino-4-chloro-2-methylpyridin-3-yl)methyl)-1-(naphthalen-2-ylmethyl)-1H-pyrazole-4-carboxamide] yielded an IC50 of 60 nM.

`Cc1cc(N)nc(C)c1CNC(=O)c1cnn(Cc2ccc3c(c2)CCS3(=O)=O)c1` [Example 174, N-((6-amino-2,4-dimethylpyridin-3-yl)methyl)-1-((1,1-dioxido-2,3-dihydrobenzo[b]thiophen-5-yl)methyl)-1H-pyrazole-4-carboxamide] yielded an IC50 of 75 nM.

`Cc1ccc2cc(Cn3cc(C(=O)NCc4c(Cl)cc(N)nc4C)nn3)ccc2n1` [Example 175, N-((6-Amino-4-chloro-2-methylpyridin-3-yl)methyl)-1-((2-methylquinolin-6-yl)methyl)-1H-1,2,3-triazole-4-carboxamide] gave an IC50 of 61 nM.

`Cc1cc(N)nc(C)c1CNC(=O)c1ccn(S(=O)(=O)c2ccccc2)c1C` [Example 176, N-((6-Amino-2,4-dimethylpyridin-3-yl)methyl)-2-methyl-1-(phenylsulfonyl)-1H-pyrrole-3-carboxamide]: the IC50 was 45000 nM.

In the case of `Cc1cc(N)nc(C)c1CNC(=O)c1cn(Cc2ncccn2)nn1` [Example 178, N-((6-Amino-2,4-dimethylpyridin-3-yl)methyl)-1-(pyrimidin-2-ylmethyl)-1H-1,2,3-triazole-4-carboxamide], half-maximal inhibition (IC50) required 67300 nM.

In turn, `Cc1cc(N)nc(C)c1CNC(=O)c1ccn(Cc2ccccc2)c1C` [Example 179, N-((6-Amino-2,4-dimethylpyridin-3-yl)methyl)-1-benzyl-2-methyl-1H-pyrrole-3-carboxamide] yielded an IC50 of 85800 nM.

For the molecule `Cc1nc(N)cc(OC(F)F)c1CNC(=O)c1cnn(Cc2ccccc2)c1` [Example 180, N-((6-Amino-4-(difluoromethoxy)-2-methylpyridin-3-yl)methyl)-1-benzyl-1H-pyrazole-4-carboxamide], the IC50 is more than 100000 nM.

`Cc1nc(N)cc(Br)c1CNC(=O)c1cnn(Cc2ccccc2)c1` [Example 181, N-((6-Amino-4-bromo-2-methylpyridin-3-yl)methyl)-1-benzyl-1H-pyrazole-4-carboxamide] gave an IC50 of 37000 nM.

For the molecule `Nc1ccc(CNC(=O)c2cnn(Cc3ccccc3)c2)cn1` [Example 182, N-((6-Aminopyridin-3-yl)methyl)-1-benzyl-1H-pyrazole-4-carboxamide], the IC50 is more than 100000 nM.

Consider `Cc1cc(N)nc(C)c1CNC(=O)c1c(C)c(C)n(S(=O)(=O)c2ccccc2)c1C` [Example 183, N-((6-Amino-2,4-dimethylpyridin-3-yl)methyl)-2,4,5-trimethyl-1-(Phenylsulfonyl)-1H-pyrrole-3-carboxamide], for which the IC50 was more than 100000 nM.

Another assay addresses T1, human plasma kallikrein. Description: biochemical.
Conditions: not given
On to `Cc1cc(N)nc(C)c1CNC(=O)c1cnn(Cc2cccc(CO)n2)c1` [Example 99, N-((6-amino-2,4-dimethylpyridin-3-yl)methyl)-1-((6-(hydroxymethyl)pyridin-2-yl)methyl)-1H-pyrazole-4-carboxamide], for which the IC50 was determined as 7000 nM.

With `Cc1cc(N)nc(C)c1CNC(=O)c1cnn(Cc2nc3ccccc3nc2C)c1` [Example 104, N-((6-amino-2,4-dimethylpyridin-3-yl)methyl)-1-((3-methylquinoxalin-2-yl)methyl)-1H-pyrazole-4-carboxamide], the IC50 worked out at 113 nM.

For `Cc1cc(N)nc(C)c1CNC(=O)c1cnn(Cc2ccc3ncc(Cl)cc3c2)c1` [Example 173, N-((6-Amino-2,4-dimethylpyridin-3-yl)methyl)-1-((3-chloroquinolin-6-yl)methyl)-1H-pyrazole-4-carboxamide], half-maximal inhibition (IC50) was put at 0.4 nM.

The same assay, now with this note: read-out: % inhibition at 100 μM.
`Nc1ccc(CNC(=O)c2cnn(Cc3ccccc3)c2)cn1` [Example 182, N-((6-Aminopyridin-3-yl)methyl)-1-benzyl-1H-pyrazole-4-carboxamide]: the inhibition at 100 µM stood at 38%.

With `Cc1cc(N)nc(C)c1CNC(=O)c1c(C)c(C)n(S(=O)(=O)c2ccccc2)c1C` [Example 183, N-((6-Amino-2,4-dimethylpyridin-3-yl)methyl)-2,4,5-trimethyl-1-(Phenylsulfonyl)-1H-pyrrole-3-carboxamide], the inhibition at 100 µM was 39%.

The values above are taken from patent publication US9290485B2, “N-((6-amino-pyridin-3-yl)methyl)-heteroaryl-carboxamides” (NOVARTIS AG, priority 2010, dated 2016).
